Measurements: patent US9963444B2, “N-acylethanolamine hydrolyzing acid amidase (NAAA) inhibitors and their use thereof” (Northeastern University, priority 2014, dated 2018)
pIC50: −log10 of the molar value.

Target: hNAAA (Homo sapiens (Human), UniProt Q02083)
Test: Fluorescence-based NAAA inhibition assay with fluorogenic substrate PAMCA;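 note: compound preincubated 15 min at room temperature with hNAAA, then PAMCA added at 5 µM, reacted 120 min at 37 °C, AMC release read by fluorescence (ex 360, em 460 nm)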
Conditions: not given

Chain of hNAAA (Q02083 29-125): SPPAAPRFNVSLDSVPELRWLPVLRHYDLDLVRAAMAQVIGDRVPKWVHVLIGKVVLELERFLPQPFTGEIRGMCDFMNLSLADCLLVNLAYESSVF
Chain of hNAAA (Q02083 126-359): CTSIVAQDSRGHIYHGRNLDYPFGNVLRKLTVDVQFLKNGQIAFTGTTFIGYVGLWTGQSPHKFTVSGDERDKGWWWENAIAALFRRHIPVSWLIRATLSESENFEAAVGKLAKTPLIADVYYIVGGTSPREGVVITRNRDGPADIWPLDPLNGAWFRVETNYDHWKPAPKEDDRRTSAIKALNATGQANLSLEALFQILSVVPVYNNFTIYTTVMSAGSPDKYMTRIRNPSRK

| Structure (SMILES) | pIC50 |
| --- | --- |
| COc1ccc(-c2ccc(COC3CN(C#N)C3)cc2)c(OC)c1 [Example 65, 3-((2′,4′-Dimethoxy-[1,1′-biphenyl]-4-yl)methoxy)azetidine-1-carbonitrile] | 7.00 to 8.00 |
| Fc1cc(-c2ccc3c(c2)OCCO3)ccc1CO[C@H]1C[C@@H](N=C=S)C1 [Example 38, 6-(3-Fluoro-4-(((1S,3S)-3-isothiocyanatocyclobutoxy)methyl)phenyl)-2,3-dihydrobenzo[b][1,4]dioxine] | 7.00 to 8.00 |
| COc1cccc(-c2ccc(COC3CN(C#N)C3)c(F)c2)c1 [Example 78, 3-((3-Fluoro-3′-methoxy-[1,1′-biphenyl]-4-yl)methoxy)azetidine-1-carbonitrile] | 7.00 to 8.00 |
| COc1cccc(-c2cc(Oc3ccccc3)ccc2COC2CN(C#N)C2)c1 [Example 89, 3-((3′-Methoxy-5-phenoxy-[1,1′-biphenyl]-2-yl)methoxy)azetidine-1-carbonitrile] | 7.00 to 8.00 |
| S=C=NCCCCCCCCCc1ccccc1 [Example 22, (9-Isothiocyanatononyl)benzene] | 7.00 to 8.00 |
| S=C=N[C@H]1C[C@@H](OCc2ccc(-c3ccccc3)cc2)C1 [Example 31, 4-(((1S,3S)-3-isothiocyanatocyclobutoxy)methyl)-1,1′-biphenyl] | 6.00 to 6.96 |
| S=C=NCCCCCCCCCCc1ccncc1 [Example 19, 4-(10-Isothiocyanatodecyl)pyridine] | 7.00 to 8.00 |
| CCOc1ccc(-c2ccc(CO[C@H]3C[C@@H](N=C=S)C3)c(F)c2)cc1F [Example 36, 4-Ethoxy-3,3′-difluoro-4′-(((1S,3S)-3-isothiocyanatocyclobutoxy)methyl)-1,1′-biphenyl] | 7.00 to 8.00 |
| N#CN1CC[C@@H](OCc2ccc(-c3ccccc3)cc2)C1 [Example 105, (R)-3-([1,1′-biphenyl]-4-ylmethoxy)pyrrolidine-1-carbonitrile] | 7.00 to 8.00 |
| N#CN1CC(OCc2ccc(-c3ccc4c(c3)OCCO4)cc2)(c2ccccc2)C1 [Example 98, 3-((4-(2,3-Dihydrobenzo[b][1,4]dioxin-6-yl)benzyl)oxy)-3-phenylazetidine-1-carbonitrile] | 7.00 to 8.00 |
| N#CN1CC[C@H](OCc2ccc(-c3ccccc3)cc2)C1 [Example 104, (S)-3-([1,1′-Biphenyl]-4-ylmethoxy)pyrrolidine-1-carbonitrile] | 6.00 to 6.96 |
| S=C=NCCCOCc1ccc(Oc2ccccc2)cc1 [Example 26, 1((3-Isothiocyanatopropoxy)methyl)-4-phenoxybenzene] | 7.00 to 8.00 |
| N#CN1CC(OCc2ccc(-c3cccc(C(F)(F)F)c3)cc2)C1 [Example 70, 3-((3′-(Trifluoromethyl)-[1,1′-biphenyl]-4-yl)methoxy)azetidine-1-carbonitrile] | 7.00 to 8.00 |
| COc1ccc(-c2ccc(CO[C@H]3C[C@@H](N=C=S)C3)c(F)c2)cc1F [Example 33, 3,3′-Difluoro-4-(((1S,3S)-3-isothiocyanatocyclobutoxy)methyl)-4′-methoxy-1,1′-biphenyl] | 7.00 to 8.00 |

Same assay, conditions: read-out: NAAA Inhibition IC50 μM; purified hNAAA, PAMCA 5 μM, pH 4.5

| Structure (SMILES) | IC50 [µM] |
| --- | --- |
| S=C=NCCCCCCCCc1ccccc1 [Example 3, (8-Isothiocyanatooctyl)benzene] | > 1 |
| CCN(Cc1ccc(-c2ccc3c(c2)OCO3)cc1)C1CC(N=C=S)C1 [Example 56, (1R,3R)—N-(4-(benzo[d][1,3]dioxol-5-yl)benzyl)-N-ethyl-3-isothiocyanatocyclobutan-1-amine] | 0.11 to 1 |

Now from value to compound:

| IC50 [µM] | Structure (SMILES) |
| --- | --- |
| > 1 | N#Cc1ccc(OCc2ccc(-c3ccccc3)cc2)cn1 [Example 111, 5-([1,1′-Biphenyl]-4-ylmethoxy)picolinonitrile] |
| > 1 | N#Cc1cccc(C(=O)OCCCCCc2ccccc2)n1 [Example 114, 5-phenylpentyl 6-cyanopicolinate] |
| > 1 | N#Cc1ncc(OCCOCCOCc2ccccc2)cn1 [Example 117, 5-(2-(2-(benzyloxy)ethoxy)ethoxy)pyrimidine-2-carbonitrile] |
| > 1 | COc1cccc(-c2ccc(COC3CN(CC#N)C3)cc2)c1 [Example 109, 2-(3-((3′-Methoxy-[1,1′-biphenyl]-4-yl)methoxy)azetidin-1-yl)acetonitrile] |
